Data as given in ChEMBL document CHEMBL4368940, “Development of a novel NURR1/NOT agonist from hit to lead and candidate for the potential treatment of Parkinson's disease” (Bioorg Med Chem Lett, 2019).
Calls of active or inactive are those of the source. The calls are words filed in the database; no cut-off is given here.

Key:
[1] = Drug level in anaesthetized dog heart administered as single iv dose; assay type: ADME, organism-based, Canis lupus familiaris; conditions: in vivo, read-out: Drug uptake
[2] = test system: Rattus norvegicus; test: Antiinflammatory activity in Sprague-Dawley rat assessed as inhibition of LPS-induced TNFalpha release at 30 mg/kg; assay type: functional
[3] = AUC in C57BL/6 mouse plasma at 3 mg/kg, iv administered as single dose; assay type: ADME, organism-based
[4] = organism: Rattus norvegicus; test: Neuroprotective activity in poly(I:C)-induced Sprague-Dawley rat Parkinson's disease lesion model assessed as reduction in IL6 level; assay type: functional, organism-based
[5] = Cmax in C57BL/6 mouse brain at 3 mg/kg, iv administered as single dose; assay type: ADME, organism-based; parameters: dose 3 mg/kg, route intravenous
[6] = target: Nuclear receptor subfamily 4 group A member 2 (Homo sapiens, UniProt P43354); test: Agonist activity at full-length Gal4-fused NOT (unknown origin) expressed in CHO cells by luciferase reporter gene assay; assay type: cell-based; conditions: read-out: EC50
Sequence of Nuclear receptor subfamily 4 group A member 2 (P43354 whole entry, the tested form may be a part): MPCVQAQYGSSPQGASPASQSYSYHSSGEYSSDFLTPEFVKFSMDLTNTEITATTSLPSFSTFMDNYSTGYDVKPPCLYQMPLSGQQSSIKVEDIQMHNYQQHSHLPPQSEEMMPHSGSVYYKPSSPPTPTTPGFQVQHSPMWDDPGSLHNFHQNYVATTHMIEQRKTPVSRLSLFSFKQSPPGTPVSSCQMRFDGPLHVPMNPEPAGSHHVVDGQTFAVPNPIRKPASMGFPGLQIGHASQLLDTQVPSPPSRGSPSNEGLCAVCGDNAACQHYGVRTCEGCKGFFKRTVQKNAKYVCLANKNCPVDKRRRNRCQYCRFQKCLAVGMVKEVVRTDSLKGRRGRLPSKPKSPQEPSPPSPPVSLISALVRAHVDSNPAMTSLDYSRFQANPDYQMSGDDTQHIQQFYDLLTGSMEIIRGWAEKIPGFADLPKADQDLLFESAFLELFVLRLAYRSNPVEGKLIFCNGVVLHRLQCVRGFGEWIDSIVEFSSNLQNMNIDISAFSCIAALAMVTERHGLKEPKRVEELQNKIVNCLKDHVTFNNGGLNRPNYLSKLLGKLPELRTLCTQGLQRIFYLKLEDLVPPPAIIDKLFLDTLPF

[7] = target: Voltage-gated inwardly rectifying potassium channel KCNH2 (Homo sapiens, UniProt Q12809); test: Inhibition of human ERG
Sequence of Voltage-gated inwardly rectifying potassium channel KCNH2 (Q12809 whole entry): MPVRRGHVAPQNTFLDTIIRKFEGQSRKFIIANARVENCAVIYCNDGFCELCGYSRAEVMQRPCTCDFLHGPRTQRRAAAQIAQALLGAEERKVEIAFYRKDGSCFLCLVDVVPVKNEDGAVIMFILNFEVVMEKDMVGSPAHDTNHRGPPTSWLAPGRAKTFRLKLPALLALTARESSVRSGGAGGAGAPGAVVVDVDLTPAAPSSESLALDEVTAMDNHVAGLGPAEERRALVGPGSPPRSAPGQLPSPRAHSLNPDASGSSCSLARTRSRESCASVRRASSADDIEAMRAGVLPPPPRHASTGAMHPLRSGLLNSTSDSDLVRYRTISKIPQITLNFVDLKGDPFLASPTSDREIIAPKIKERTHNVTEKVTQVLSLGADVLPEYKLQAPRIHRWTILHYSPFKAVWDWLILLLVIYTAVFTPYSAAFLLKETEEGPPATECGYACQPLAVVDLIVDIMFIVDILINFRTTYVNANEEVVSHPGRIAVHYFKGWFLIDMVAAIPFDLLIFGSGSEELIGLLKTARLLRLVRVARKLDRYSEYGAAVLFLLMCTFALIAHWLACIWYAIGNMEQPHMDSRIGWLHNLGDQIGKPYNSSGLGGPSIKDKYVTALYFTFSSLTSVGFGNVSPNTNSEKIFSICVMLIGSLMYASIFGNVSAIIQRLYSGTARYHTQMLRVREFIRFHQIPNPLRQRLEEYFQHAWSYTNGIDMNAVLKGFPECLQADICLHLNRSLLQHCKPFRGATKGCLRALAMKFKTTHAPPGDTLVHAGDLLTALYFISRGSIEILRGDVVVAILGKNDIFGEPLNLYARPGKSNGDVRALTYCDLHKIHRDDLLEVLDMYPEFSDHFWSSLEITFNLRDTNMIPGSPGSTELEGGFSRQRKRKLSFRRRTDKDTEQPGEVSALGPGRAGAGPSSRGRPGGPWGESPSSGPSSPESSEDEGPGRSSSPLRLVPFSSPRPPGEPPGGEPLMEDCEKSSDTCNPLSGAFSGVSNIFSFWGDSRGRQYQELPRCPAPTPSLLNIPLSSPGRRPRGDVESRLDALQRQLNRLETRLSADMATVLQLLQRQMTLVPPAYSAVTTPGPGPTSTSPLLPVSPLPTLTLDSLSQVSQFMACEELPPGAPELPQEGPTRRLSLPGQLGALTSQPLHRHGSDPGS

[8] = Apparent half-life of the terminal disposition phase in C57BL/6 mouse brain at 10 mg/kg, po administered as single dose; assay type: ADME, organism-based; conditions: read-out: t1/2 lambda z (converted)
[9] = Apparent half-life of the terminal disposition phase in C57BL/6 mouse plasma at 10 mg/kg, po administered as single dose; assay type: ADME, organism-based; conditions: read-out: t1/2 lambda z (converted)
[10] = AUC in C57BL/6 mouse brain at 3 mg/kg, iv administered as single dose; assay type: ADME, organism-based
[11] = Cardiotoxicity in iv dosed anaesthetized dog assessed as electrophysiological changes administered as single dose measured after 5 mins; assay type: toxicity, organism-based, Canis lupus familiaris; conditions: in vivo
[12] = Ratio of AUC in C57BL/6 mouse brain to plasma at 10 mg/kg, po administered as single dose; assay type: ADME, organism-based; conditions: read-out: Ratio AUC
[13] = target: Nuclear receptor subfamily 4 group A member 2 (Mus musculus) (UniProt Q06219); test: Agonist activity at Nurr1 in co-culture of mouse primary neurons and microglia assessed as inhibition of LPS-induced neurotoxicity by measuring neuroprotection at 3 uM; parameters: scale not given: the % may be the effect or the level left
Sequence of Nuclear receptor subfamily 4 group A member 2 (Mus musculus) (Q06219 whole entry): as the sequence (P43354 whole entry, the tested form may be a part) above, with T131S, G134S, E354D counted along it

[14] = Cmax in C57BL/6 mouse brain at 10 mg/kg, po administered as single dose; assay type: ADME, organism-based; parameters: dose 10 mg/kg, route oral
[15] = Cardiotoxicity in iv dosed anaesthetized dog assessed as electrocardiographic changes administered as single dose measured after 5 mins; assay type: toxicity, organism-based, Canis lupus familiaris; conditions: in vivo
[16] = Drug level in anaesthetized guinea pig heart administered as single iv dose; assay type: ADME, organism-based, Cavia porcellus; conditions: in vivo, read-out: Drug uptake
[17] = test system: Cavia porcellus; test: Hemodynamic activity iv dosed anaesthetized guinea pig administered as single dose measured after 5 mins; assay type: ADME, organism-based; conditions: in vivo
[18] = Cmax in C57BL/6 mouse plasma at 3 mg/kg, iv administered as single dose; assay type: ADME, organism-based; parameters: dose 3 mg/kg, route intravenous
[19] = AUC in C57BL/6 mouse brain at 10 mg/kg, po administered as single dose; assay type: ADME, organism-based
[20] = Clearance in human hepatocytes assessed per million cells; assay type: ADME, cell-based, Hepatocyte
[21] = AUC in C57BL/6 mouse plasma at 10 mg/kg, po administered as single dose; assay type: ADME, organism-based
[22] = Cmax in C57BL/6 mouse plasma at 10 mg/kg, po administered as single dose; assay type: ADME, organism-based; parameters: dose 10 mg/kg, route oral
[23] = Cardiotoxicity in iv dosed anaesthetized guinea pig assessed as electrophysiological changes administered as single dose measured after 5 mins; assay type: toxicity, organism-based, Cavia porcellus; conditions: in vivo
[24] = organism: Rattus norvegicus; test: Neuroprotective activity in poly(I:C)-induced Sprague-Dawley rat Parkinson's disease lesion model assessed as reduction in brain gliosis; assay type: functional, organism-based
[25] = Tmax in C57BL/6 mouse plasma at 10 mg/kg, po administered as single dose; assay type: ADME, organism-based
[26] = target: Nuclear receptor subfamily 4 group A member 2 (Mus musculus) (UniProt Q06219); test: Agonist activity at Nurr1 in mouse MG7 cells assessed as inhibition of LPS-induced IL1beta secretion at 3 uM; assay type: cell-based
[27] = Apparent half-life of the terminal disposition phase in C57BL/6 mouse brain at 3 mg/kg, iv administered as single dose; assay type: ADME, organism-based; conditions: read-out: t1/2 lambda z (converted)
[28] = test system: Canis familiaris; test: Hemodynamic activity iv dosed anaesthetized dog administered as single dose measured after 5 mins; assay type: ADME, organism-based, Canis lupus familiaris; conditions: in vivo
[29] = target: Nuclear receptor subfamily 4 group A member 2 (Rattus norvegicus) (UniProt Q07917); test: Agonist activity at Nurr1 in rat mesencephalic primary neurons assessed as increase in tyrosine hydroxylase expression at 3 uM
Sequence of Nuclear receptor subfamily 4 group A member 2 (Rattus norvegicus) (Q07917 whole entry): as the sequence (P43354 whole entry, the tested form may be a part) above, with T131S, P182R, E354D counted along it

[30] = Ratio of AUC in C57BL/6 mouse brain to plasma at 3 mg/kg, iv administered as single dose; assay type: ADME, organism-based; conditions: read-out: Ratio AUC
[31] = Cardiotoxicity in iv dosed anaesthetized guinea pig assessed as electrocardiographic changes administered as single dose measured after 5 mins; assay type: toxicity, organism-based, Cavia porcellus; conditions: in vivo
[32] = Apparent half-life of the terminal disposition phase in C57BL/6 mouse plasma at 3 mg/kg, iv administered as single dose; assay type: ADME, organism-based; conditions: in vivo

concentration [1]: 40 µM | AUC [3]: 20600 ng·h/mL | Cmax [5]: 2630 ng/mL | EC50 [6]: 218 nM | half-life [8]: 8.2 days | half-life [9]: 8.1 days | AUC [10]: 15000 ng·h/mL | Kp [12]: 0.8 | Cmax [14]: 3080 ng/mL | concentration [16]: ≤ 17 µM | Cmax [18]: 4870 ng/mL | AUC [19]: 55600 ng·h/mL | CLH [20]: 0.051 mL/h | AUC [21]: 70300 ng·h/mL | Cmax [22]: 4170 ng/mL | Tmax [25]: 24 h | inhibition [26]: 28 to 46% | half-life [27]: 3.8 days | Activity [29]: 188 to 284% | Kp [30]: 0.7 | t1/2 lambda z [32]: 4.1 days
SMILES: CC(C)(O)c1cccc(-c2ccc3nc(-c4ccc(Cl)cc4)cn3c2)c1
inhibition in vivo at 30 mg/kg [2]: 47% | Activity [4]: Active | IC50 [7]: 1500 nM | Activity [11]: Non-Toxic | Activity [13]: 86 to 99% | Activity [15]: Non-Toxic | Activity [17]: Non-Toxic | Activity [23]: Non-Toxic | Activity [24]: Active | Activity [28]: Non-Toxic | Activity [31]: Non-Toxic
